Laboratory results as given in publication PMC10262914 (Bioorganic chemistry, 2022).

Legend:
[1] = test system: Mycobacterium tuberculosis H37Rv; experiment: Alamar blue metabolic readout assay; type: cell-based; conditions: M. tuberculosis H37Rv, GAS media
[2] = test system: Mycobacterium tuberculosis H37Rv; experiment: Alamar blue metabolic readout assay; type: cell-based; conditions: M. tuberculosis H37Rv, 7H12 media
[3] = test system: Mycobacterium tuberculosis H37Rv; experiment: Low oxygen recovery assay; type: cell-based; conditions: M. tuberculosis H37Rv, low oxygen "latent" conditions
[4] = Microsomal stability assay, mouse; conditions: mouse hepatic microsomes
[5] = Microsomal stability assay, human; conditions: human hepatic microsomes
[6] = Microsomal stability assay, marmoset; conditions: marmoset hepatic microsomes

## [2H]c1c(C([2H])([2H])[2H])cn2c(C(=O)NC([2H])([2H])c3ccc(C(F)(F)F)cc3)c(C([2H])([2H])[2H])nc2c1[2H] [Compound 57, 2,6-Bis(Methyl-d3)-N-((4-(trifluoromethyl)phenyl)methyl-d2) imidazo[1,2-a]pyridine-7,8-d2-3-carboxamide]
[1]
  GAS MIC: 5.7 ± 1.2 nM
[2]
  7H12 MIC: 6.7 ± 0.9 nM
[3]
  LORA MIC: >10,000 nM
[4]
  CLint: 78 ml/min/g protein
[5]
  CLint: 32 ml/min/g protein
[5]; 2 μM compound, 0.5 mg/mL
  Half-life: 43 min
[6]
  CLint: 60 ml/min/g protein
[6]; 2 μM compound, 0.5 mg/mL
  Half-life: 23 min
